Where two headings read alike, the source gives them in different places.
How the values were obtained:
[1] = tested on: lung cancer cell line QG56; test: interaction study with QG56 cancer cells i.v.; type: in vivo, human
Method: (§1) To test for inhibition of metastasis, pranlukast is administered orally (instead of intraperitoneally as was done in Example 2) before intravenous injection of the cancer cells. Arachidonic acid (AA) is then administered to the subarachnoid space two hours after pranlukast administration. The volume of CSF, white blood cell counts and cancer cell counts in the CSF are measured every 30 minutes.
(§2) Cultured human cancer cell lines, Colo 201 (colon cancer) and MKN 74 ([…]), and a cultured rat cancer cell line RCN9 were purchased from Health Science Research Resources Bank (Rinku-minamihama 2-11, Sennan-shi, Osaka, 590-0535, Japan). Human lung cancer cell line QG56 was a gift from Dr. Yukito Ichinose, Department of Laboratory Medicine, Kyusyu Cancer Center, Hukuoka, Japan. Cells were cultured at 37° C. and 5% CO2, in RPMI-1640 (SIGMA, MO, USA) supplemented with 5% fetal bovine serum, 2 mM L-glutamine (Gibco), 100 units penicillin, 100 μg/ml streptomycin (Gibco Invitrogen Corp., Grand Island, N.Y., USA).
(§3) Rats were anesthetized by sodium pentobarbital (50 mg/kg i.p.).
(§4) A femoral vein was exposed and a polyethylene tube filled with 0.002% heparin in saline was inserted. The other end of the polyethylene tube was connected to a three way cock valve for the intravenous injection of cancer cells. The animal was then placed in a stereotaxic unit (Type SRS-6 produced by Narishige Scientific Instrument Lab). Fur from the top of the head to the neck was shaved. The study area was disinfected with 70% ethanol. Skin and muscle over the cervical vertebrae were exposed. A hole was made using an 18 G×1 ½ needle passing through the dura via the cisterna magna. One end (2-3 mm) of an SP10 tube (5-6 cm long) was inserted into the subarachnoid space. The cannula was fixed with cyanoacrylic glue to the peripheral tissue. […]
(§5) The volume (μl) of CSF, WBC counts, and cancer cells counts was measured after the 3rd treatment for 8 hours.

[2] = tested on: dextran-induced rat paw edema; test: dextran-induced rat paw edema; type: in vivo
[3] = tested on: rat ischemia model; test: rat ischemia model, reversible 30 minute occlusion of both carotid arteries followed by reperfusion; type: in vivo; conditions: pre-treatment
Method: One of 4-5 rats survived for one week when pranlukast (450 mg/kg i.p.) was administered 30 minutes before the occlusion.

[4] = tested on: RCN-9, a colon cancer cell line; test: interaction study with RCN9 cancer cells i.v.; type: in vivo, rat
Method: as §1, §2, §3, §4, §5

[5] = tested on: rats; conditions: cited from earlier work
[6] = tested on: rats; conditions: cited from earlier work; remark: listed apart in the source
[7] = tested on: capillary permeability and extravasation of white blood cells and tumor cells from the capillary; test: interaction study: arachidonic acid-induced capillary permeability and extravasation into CSF (model of metastasis); type: in vivo, rat
Method: as §1, §3
A femoral vein was exposed and a polyethylene tube filled with 0.002% heparin in saline was inserted. The other end of the polyethylene tube was connected to a three way cock valve for the intravenous injection of cancer cells. The animal was then placed in a stereotaxic unit (Type SRS-6 produced by Narishige Scientific Instrument Lab). Fur from the top of the head to the neck was shaved. The study area was disinfected with 70% ethanol. Skin and muscle over the cervical vertebrae were exposed. A hole was made using an 18 G×1 ½ needle passing through the dura via the cisterna magna. One end (2-3 mm) of an SP10 tube (5-6 cm long) was inserted into the subarachnoid space. The cannula was fixed with cyanoacrylic glue to the peripheral tissue. The other end of the SP10 tube was used for administration of arachidonic acid (8.16 ng/2 μl of saline) and subsequently for collecting cerebrospinal fluid (CSF) every thirty minutes thereafter for 1-2 hours in the in vivo morphological study and for 8 hours in the interaction studies.
As a capsule of Onon contains 112.5 mg of pranlukast, the powder from two capsules was stirred in 2.295 ml of deionized water with the electric mixer immediately before oral administration. The volume of administration of pranlukast was 5 ml/kg (dose=490 mg/kg).
The number of cancer cells were prepared to 1/100 of the number of neutrophils in each rat using PBS. Because of body weight (400±50 g), the number of cancer cells were between 1.88×10^4 and 2.43×10^4 and the volume of administration of cancer cell was adjusted to 1 ml for each rat.
Arachidonic acid was dissolved in saline and 816.25 ng/2 μl was administered for each rat.
Three different treatments were administered as follows;
1st treatment was pranlukast (490 mg/kg p.o.) or deionized water (p.o.).
2nd treatment was with cancer cells or PBS
3rd treatment was with arachidonic acid or saline.
The first treatment was administered 2 hours before arachidonic acid. The second treatment (cancer cells i.v.) was administered 2-3 minutes before arachidonic acid. Two canula in each animal to the femoral vein and to the subarachnoid space were inserted between the 1st treatment and 2nd treatment.
The number on the right side of table corresponds to that of the figures for the results. Four rats were used for each group.
as §5
To analyze whether or not human cancer cells, as foreign substances, affect the immune system in rats, each parameter, i.e., white blood cells counts, tumor cells counts and CSF volume with rat cancer cells (RCN9) was compared with the corresponding parameters of COLO201, MKN 74, and QG56, respectively, using area under time action curves and analysis of variance (Dunnet). Probability value was p<0.05 to be significant.

[8] = tested on: Colo 201 (colon cancer) cells; test: interaction study with Colo201 cancer cells i.v.; type: in vivo, human
Method: as §1, §2, §3, §4, §5

[9] = tested on: MKN 74 cells; test: interaction study with MKN74 cancer cells i.v.; type: in vivo, human; conditions: pranlukast-MKN 74-saline
Method: as §1, §2, §3, §4, §5

[10] = tested on: MKN 74 (lung cancer) cells; test: interaction study with MKN74 cancer cells i.v.; type: in vivo, human; conditions: pranlukast-MKN74-arachidonic acid, 490 mg/kg p.o., rat
Method: as §1, §2, §3, §4, §5

[11] = pranlukast-QG56-arachidonic acid, 490 mg/kg p.o., rat
[12] = pranlukast-RCN9-arachidonic acid, 490 mg/kg p.o., rat
[13] = 490 mg/kg p.o., eight hours after arachidonic acid
[14] = pranlukast (490 mg/kg p.o.)-PBS-arachidonic acid (816 ng/2 μl), FIG. 11
[15] = pranlukast-Colo201-arachidonic acid, 490 mg/kg p.o., rat

## O=C(Nc1cccc2c(=O)cc(-c3nnn[nH]3)oc12)c1ccc(OCCCCc2ccccc2)cc1 [pranlukast]
[1]; [11]
  extravasation of tumor cells: significantly inhibited
  increasing capillary permeability: significantly inhibited
[1]; pranlukast-QG56-saline
  effect when cancer cells present without arachidonic acid: did not have any effect
[2]; about 490 mg/kg, administered intraperitoneally
  inhibition of dextran-induced paw edema: completely inhibited
[2]; about 490 mg/kg, administered orally (FIG. 2)
  inhibition of dextran-caused paw edema: completely inhibited
[2]; dose dependence
  inhibition of dextran-induced rat paw edema: inhibited by pranlukast in a dose-dependent fashion
[3]
  survival: longer survival
[4]; [12]
  extravasation of tumor cells: significantly inhibited
  increasing capillary permeability: significantly inhibited
[4]; pranlukast-RCN9-saline
  effect when cancer cells present without arachidonic acid: did not have any effect
[5]; p.o.
  LD50: > 2000 mg/kg
[5]; s.c.
  LD50: > 2000 mg/kg
[6]; repeated administration 30, 100, 300, 1000 mg/kg/day p.o. for three months and six months
  behavior, changes in body weight, and food intake compared with control group: normal
[6]; repeated administration
  urine examination and histopathological examinations: normal
[6]; single administration 30, 100, 300, 1000 mg/kg p.o.
  behavior, changes in body weight, and food intake compared with control group: normal
[6]; single administration
  urine examination and histopathological examinations: normal
[7]; [13]
  area under the time action curve, CSF: zero
  area under the time action curve, white blood cell counts: zero
[7]; 490 mg/kg p.o., eight hours after arachidonic acid, tumor cells i.v.
  area under the time action curve, tumor cell counts: zero
[7]; [14]
  extravasation of white blood cells caused by arachidonic acid: inhibited
  increased capillary permeability caused by arachidonic acid: inhibited
[7]; pranlukast-PBS-saline, 490 mg/kg p.o., no arachidonic acid
  effect of pranlukast by itself on tumor/WBC counts and CSF volume: no effect
[8]; [15]
  extravasation of tumor cells: significantly inhibited
  increasing capillary permeability: significantly inhibited
[8]; pranlukast-Colo201-saline
  effect when cancer cells present without arachidonic acid: did not have any effect
[9]
  effect when cancer cells present without arachidonic acid: did not have any effect
[10]
  extravasation of tumor cells: significantly inhibited
  increasing capillary permeability: significantly inhibited
